Legend:
[1] = tested on: p-STAT3 and c-myc protein; experiment: Western blot on xenograft tumor tissues; type: in vivo, BALB/c nude mice; conditions: xenograft tumor tissue
Protocol: For the assessment of protein expression levels, Western blot analysis was conducted following a standardized protocol ([Zhou et al., 2022]). The CAKI-2 cells were initially rinsed with PBS to remove any residual culture medium. Subsequently, cells were lysed using a RIPA buffer supplemented with 1 mM phenylmethylsulfonyl fluoride (PMSF), and the lysate was incubated on ice for a duration of 1 h. The lysate was centrifuged at a speed of 13,000 rpm for 30 min at 4°C. Protein concentrations were quantified using a BCA protein assay kit (Beyotime, Shanghai, China), ensuring equal protein loading for each sample. Samples were then resolved by SDS-PAGE and transferred onto a polyvinylidene difluoride (PVDF) membrane. Subsequently, the membrane was blocked with 3% BSA in PBS at room temperature for 2 h and incubated overnight with the corresponding antibody at 4°C. […] The specific protein bands were visualized using ECL detection system (Tanon, Shanghai, China), and the band intensities were quantified using ImageJ software.
To further investigate the in vivo effects of BST-4, 6–8 weeks male BALB/c nude mice were obtained by Changzhou Cavens Experimental Animal Co., Ltd. (Changzhou, China). […] The tumor volume of mice was measured every 2 days and calculated according to the formula: (c × c × d)/2, where c and d represent the minimum diameter and maximum diameter, respectively. […]

EPHA7 = EPHA7 (Homo sapiens, UniProt Q15375); experiment: SelectScreen Z′-LYTE kinase assay; type: biochemical
Protocol: (§1) The kinase selectivity profile of BST-4 was performed by the SelectScreen kinase profiling service (Thermo Fisher Scientific). Kinase selectivity assay was performed using Z′-LYTE ™ screening protocol kit. Briefly, the test compounds were screened in 1% DMSO (final). For 10-point titrations, perform a 3-fold dilution starting at a starting concentration of 50 µM. Then 2.5 µL 4× test compound, 2.4 µL kinase buffer, 5 µL 2× kinase mixture and 2.5 µL 4× ATP solution was added in black 384-well plate. After shaking for 30 s, the plates were incubated for 60 min at room temperature. Add developing reagent solution and shake the plate for 30 s, then incubate for 1 h at room temperature. The Fluorescence intensity per well was read using a fluorescence plate reader. SelectScreen® Kinase Profiling Service used XLfit from IDBS. The dose response curve was curve fit to model number 205 (sigmoidal dose-response model) and inhibition rates were calculated. 50% inhibition was used as a activity threshold. IC50 values were calculated based on curve fitting.

JAK1 = JAK1 (Homo sapiens, UniProt P23458); experiment: SelectScreen Z′-LYTE kinase assay; type: biochemical
Protocol: as §1

EPHA6 = EPHA6 (Homo sapiens, UniProt Q9UF33); experiment: SelectScreen Z′-LYTE kinase assay; type: biochemical
Protocol: as §1

YES1 = YES1 (Homo sapiens, UniProt P07947); experiment: SelectScreen Z′-LYTE kinase assay; type: biochemical
Protocol: as §1

EPHB2 = EPHB2 (Homo sapiens, UniProt P29323); experiment: SelectScreen Z′-LYTE kinase assay; type: biochemical
Protocol: as §1

MUSK = MUSK (Homo sapiens, UniProt O15146); experiment: SelectScreen Z′-LYTE kinase assay; type: biochemical
Protocol: as §1

PTK2B = PTK2B (Homo sapiens, UniProt Q14289); experiment: SelectScreen Z′-LYTE kinase assay; type: biochemical
Protocol: as §1

NTRK3 = NTRK3 (Homo sapiens, UniProt Q16288); experiment: SelectScreen Z′-LYTE kinase assay; type: biochemical
Protocol: as §1

ITK = ITK (Homo sapiens, UniProt Q08881); experiment: SelectScreen Z′-LYTE kinase assay; type: biochemical
Protocol: as §1

EPHA4 = EPHA4 (Homo sapiens, UniProt P54764); experiment: SelectScreen Z′-LYTE kinase assay; type: biochemical
Protocol: as §1

JAK2 = JAK2 (Homo sapiens, UniProt O60674); experiment: SelectScreen Z′-LYTE kinase assay; type: biochemical
Protocol: as §1

TEC = TEC (Homo sapiens, UniProt P42680); experiment: SelectScreen Z′-LYTE kinase assay; type: biochemical
Protocol: as §1

STAT3 [2] = target: T1, STAT3 (Homo sapiens, UniProt P40763); experiment: Microscale thermophoresis (MST) assay; type: binding; parameters: purchased Abcam
Protocol: The MST experiments were performed using the Monolith NT.115 instrument. BRD4 and STAT3 proteins were labeled with the Lys labeling kit at the final concentration of 100 nM. The compounds, previously suspended in 100% DMSO, were diluted in a buffer containing 20 mM Tris·HCl (pH 7.5), 100 mM NaCl, and 3 mM DTT, achieving a final DMSO concentration of 5%. The compounds were gradient-diluted in 1:1 dilution and starting from 100 μM. The samples were loaded into MST-standard glass capillaries. All the measurements were performed in triplicate using automatically assigned 50% MST power and 20% LED power. Data analysis was performed using GraphPad Prism 7.0 software.

STAT5b = STAT5b (Homo sapiens, UniProt P51692); experiment: Binding affinity to BET and STAT family members
STAT3 [3] = target: T1, STAT3; experiment: STAT3 binding inhibition assay; parameters: purchased Abcam
STAT2 = STAT2 (Homo sapiens, UniProt P52630); experiment: Binding affinity to BET and STAT family members

T1 sequence (P40763 whole entry): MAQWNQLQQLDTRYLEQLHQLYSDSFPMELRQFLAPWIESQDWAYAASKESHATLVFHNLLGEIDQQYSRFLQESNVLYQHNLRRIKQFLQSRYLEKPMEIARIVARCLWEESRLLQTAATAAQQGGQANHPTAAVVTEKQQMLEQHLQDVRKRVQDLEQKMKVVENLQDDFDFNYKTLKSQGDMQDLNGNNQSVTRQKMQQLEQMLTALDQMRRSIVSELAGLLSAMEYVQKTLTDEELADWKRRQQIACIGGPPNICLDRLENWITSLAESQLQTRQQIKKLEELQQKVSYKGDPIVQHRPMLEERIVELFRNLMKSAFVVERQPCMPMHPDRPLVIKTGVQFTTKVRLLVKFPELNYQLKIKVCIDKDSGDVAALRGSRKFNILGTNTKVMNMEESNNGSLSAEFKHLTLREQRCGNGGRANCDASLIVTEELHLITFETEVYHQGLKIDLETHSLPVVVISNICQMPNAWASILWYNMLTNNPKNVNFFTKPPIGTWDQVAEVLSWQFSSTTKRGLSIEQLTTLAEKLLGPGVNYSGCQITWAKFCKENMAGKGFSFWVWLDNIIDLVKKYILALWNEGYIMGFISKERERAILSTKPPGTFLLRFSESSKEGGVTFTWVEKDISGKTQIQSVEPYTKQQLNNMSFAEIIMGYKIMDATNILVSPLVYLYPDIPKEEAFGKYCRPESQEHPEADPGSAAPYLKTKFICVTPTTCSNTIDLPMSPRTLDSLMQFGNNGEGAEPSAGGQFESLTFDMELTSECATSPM
JAK2, sequence (O60674 whole entry): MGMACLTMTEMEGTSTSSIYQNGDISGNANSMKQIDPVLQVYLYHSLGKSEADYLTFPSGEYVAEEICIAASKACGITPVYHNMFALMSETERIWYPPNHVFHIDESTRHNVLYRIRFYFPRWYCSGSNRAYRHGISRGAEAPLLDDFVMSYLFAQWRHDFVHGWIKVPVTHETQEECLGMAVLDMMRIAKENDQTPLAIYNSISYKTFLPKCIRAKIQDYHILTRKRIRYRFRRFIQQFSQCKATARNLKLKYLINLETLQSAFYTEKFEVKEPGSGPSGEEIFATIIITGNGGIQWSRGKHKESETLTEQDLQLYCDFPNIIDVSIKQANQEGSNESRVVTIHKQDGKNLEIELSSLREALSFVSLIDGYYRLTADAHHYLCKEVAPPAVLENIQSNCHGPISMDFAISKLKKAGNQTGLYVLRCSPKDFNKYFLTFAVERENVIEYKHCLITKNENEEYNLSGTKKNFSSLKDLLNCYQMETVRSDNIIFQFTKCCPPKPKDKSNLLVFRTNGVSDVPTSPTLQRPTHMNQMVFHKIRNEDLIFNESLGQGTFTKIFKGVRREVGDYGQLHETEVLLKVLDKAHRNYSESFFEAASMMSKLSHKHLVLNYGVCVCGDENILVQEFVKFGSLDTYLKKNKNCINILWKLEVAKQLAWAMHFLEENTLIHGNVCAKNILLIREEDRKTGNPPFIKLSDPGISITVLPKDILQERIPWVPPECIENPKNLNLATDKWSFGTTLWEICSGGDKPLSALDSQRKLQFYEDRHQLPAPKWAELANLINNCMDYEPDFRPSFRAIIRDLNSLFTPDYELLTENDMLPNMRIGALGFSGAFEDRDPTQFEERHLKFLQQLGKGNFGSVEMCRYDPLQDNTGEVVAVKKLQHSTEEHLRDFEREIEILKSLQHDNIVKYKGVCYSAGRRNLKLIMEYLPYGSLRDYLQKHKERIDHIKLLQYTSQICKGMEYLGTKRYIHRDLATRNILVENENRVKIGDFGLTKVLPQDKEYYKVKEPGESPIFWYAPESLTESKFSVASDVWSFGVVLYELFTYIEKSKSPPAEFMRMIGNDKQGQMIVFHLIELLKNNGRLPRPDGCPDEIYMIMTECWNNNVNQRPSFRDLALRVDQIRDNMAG
EPHA7, sequence (Q15375 28-998): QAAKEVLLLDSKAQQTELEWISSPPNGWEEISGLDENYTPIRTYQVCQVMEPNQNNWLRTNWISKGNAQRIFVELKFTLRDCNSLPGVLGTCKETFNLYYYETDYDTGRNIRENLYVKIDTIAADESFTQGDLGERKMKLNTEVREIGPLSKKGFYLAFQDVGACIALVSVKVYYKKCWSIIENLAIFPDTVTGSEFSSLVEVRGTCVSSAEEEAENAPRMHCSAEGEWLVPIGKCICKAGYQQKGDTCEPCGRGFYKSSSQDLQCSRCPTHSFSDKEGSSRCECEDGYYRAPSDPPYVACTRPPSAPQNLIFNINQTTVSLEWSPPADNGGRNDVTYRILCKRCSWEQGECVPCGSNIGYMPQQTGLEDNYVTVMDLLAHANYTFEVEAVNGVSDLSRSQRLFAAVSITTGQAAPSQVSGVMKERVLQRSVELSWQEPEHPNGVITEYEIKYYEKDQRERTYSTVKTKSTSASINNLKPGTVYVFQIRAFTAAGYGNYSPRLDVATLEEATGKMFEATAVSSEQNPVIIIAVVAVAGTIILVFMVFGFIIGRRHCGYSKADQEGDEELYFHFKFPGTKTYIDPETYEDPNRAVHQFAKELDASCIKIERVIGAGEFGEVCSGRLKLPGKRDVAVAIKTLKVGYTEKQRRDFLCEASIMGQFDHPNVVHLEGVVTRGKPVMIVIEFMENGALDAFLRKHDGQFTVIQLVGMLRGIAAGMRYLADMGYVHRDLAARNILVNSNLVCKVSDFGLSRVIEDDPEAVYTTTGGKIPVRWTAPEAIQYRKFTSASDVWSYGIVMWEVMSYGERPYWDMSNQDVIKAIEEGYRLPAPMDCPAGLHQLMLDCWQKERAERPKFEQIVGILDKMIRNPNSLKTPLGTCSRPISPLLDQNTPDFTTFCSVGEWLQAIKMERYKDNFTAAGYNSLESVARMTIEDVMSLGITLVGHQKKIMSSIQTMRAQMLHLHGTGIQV
JAK1, sequence (P23458 whole entry): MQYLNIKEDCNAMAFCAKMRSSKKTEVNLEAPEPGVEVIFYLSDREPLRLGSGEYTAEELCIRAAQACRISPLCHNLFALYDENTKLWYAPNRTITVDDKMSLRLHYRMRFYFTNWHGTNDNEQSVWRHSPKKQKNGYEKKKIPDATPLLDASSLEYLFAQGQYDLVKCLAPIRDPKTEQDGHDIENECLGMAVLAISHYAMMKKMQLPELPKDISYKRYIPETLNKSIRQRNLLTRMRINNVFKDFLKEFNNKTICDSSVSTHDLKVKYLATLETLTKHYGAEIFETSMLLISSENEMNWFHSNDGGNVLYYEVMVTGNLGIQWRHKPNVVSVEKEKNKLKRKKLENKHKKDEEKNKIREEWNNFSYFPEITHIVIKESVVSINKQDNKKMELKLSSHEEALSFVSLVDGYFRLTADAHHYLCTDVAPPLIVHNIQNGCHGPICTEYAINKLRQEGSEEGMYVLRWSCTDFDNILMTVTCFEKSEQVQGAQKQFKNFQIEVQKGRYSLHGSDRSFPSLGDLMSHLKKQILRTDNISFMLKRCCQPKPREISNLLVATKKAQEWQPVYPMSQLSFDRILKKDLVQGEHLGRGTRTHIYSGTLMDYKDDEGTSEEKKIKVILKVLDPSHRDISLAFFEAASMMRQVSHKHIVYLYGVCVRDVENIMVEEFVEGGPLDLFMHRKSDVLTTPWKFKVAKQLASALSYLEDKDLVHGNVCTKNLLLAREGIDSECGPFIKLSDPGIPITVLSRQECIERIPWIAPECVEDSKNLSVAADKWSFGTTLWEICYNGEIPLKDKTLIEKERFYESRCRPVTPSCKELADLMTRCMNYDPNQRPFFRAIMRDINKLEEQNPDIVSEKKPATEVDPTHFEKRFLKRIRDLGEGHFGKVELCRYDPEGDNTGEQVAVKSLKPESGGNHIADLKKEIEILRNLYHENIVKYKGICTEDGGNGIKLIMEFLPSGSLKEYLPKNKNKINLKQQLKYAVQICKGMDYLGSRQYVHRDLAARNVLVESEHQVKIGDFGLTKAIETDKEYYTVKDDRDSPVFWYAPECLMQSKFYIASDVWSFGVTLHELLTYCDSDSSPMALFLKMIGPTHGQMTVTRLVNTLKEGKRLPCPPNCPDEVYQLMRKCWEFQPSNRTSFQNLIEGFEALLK
PTK2B, sequence (Q14289 whole entry): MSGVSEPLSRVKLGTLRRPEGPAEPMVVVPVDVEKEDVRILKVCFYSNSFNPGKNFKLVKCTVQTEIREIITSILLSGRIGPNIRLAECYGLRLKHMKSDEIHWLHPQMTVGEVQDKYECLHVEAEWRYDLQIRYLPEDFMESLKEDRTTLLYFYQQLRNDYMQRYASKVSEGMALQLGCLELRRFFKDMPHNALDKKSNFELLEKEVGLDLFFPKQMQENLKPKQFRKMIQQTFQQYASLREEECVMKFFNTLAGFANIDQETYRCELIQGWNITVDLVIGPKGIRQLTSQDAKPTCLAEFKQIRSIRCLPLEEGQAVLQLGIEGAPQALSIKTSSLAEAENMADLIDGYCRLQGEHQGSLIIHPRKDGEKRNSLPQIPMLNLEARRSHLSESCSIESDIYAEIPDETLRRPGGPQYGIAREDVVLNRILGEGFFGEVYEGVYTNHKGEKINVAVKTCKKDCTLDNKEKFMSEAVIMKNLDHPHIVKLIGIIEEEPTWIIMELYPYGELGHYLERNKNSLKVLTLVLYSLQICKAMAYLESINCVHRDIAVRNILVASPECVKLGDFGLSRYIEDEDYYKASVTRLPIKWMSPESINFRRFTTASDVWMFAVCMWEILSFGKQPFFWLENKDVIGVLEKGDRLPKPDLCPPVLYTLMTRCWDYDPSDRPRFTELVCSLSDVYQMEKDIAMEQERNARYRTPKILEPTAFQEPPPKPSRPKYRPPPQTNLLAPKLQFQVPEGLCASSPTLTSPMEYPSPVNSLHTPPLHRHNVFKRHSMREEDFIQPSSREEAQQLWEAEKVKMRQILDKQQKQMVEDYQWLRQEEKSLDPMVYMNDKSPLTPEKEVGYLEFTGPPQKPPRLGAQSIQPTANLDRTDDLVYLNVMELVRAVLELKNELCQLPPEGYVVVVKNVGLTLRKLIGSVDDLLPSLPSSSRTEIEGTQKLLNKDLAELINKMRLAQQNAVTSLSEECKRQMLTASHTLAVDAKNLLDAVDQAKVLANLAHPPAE

In the case of `CCS(=O)(=O)Cc1cnc(Oc2c(F)cc(F)cc2OCCCCOc2ccc(/C=C/c3cc(OC)cc(OC)c3)cc2)c(-c2cc(C)c3c(=O)[nH]ccn23)c1` [BST-4], the “c-myc protein expression level in tumor tissues” value [1] is reported as “significantly downregulated”, the “p-STAT3 protein expression level in tumor tissues” value [1] is reported as “significantly downregulated” and the IC50 (EPHA7) is reported as greater than 10 µM. The inhibition at 1 µM (EPHA7) was 0.91%, the IC50 (JAK1) was greater than 10 µM and the inhibition at 1 µM (JAK1) was 1.21%. The IC50 (EPHA6) was greater than 10 µM, the inhibition at 1 µM (EPHA6) was 0.26% and the IC50 (YES1) was greater than 10 µM. For the same molecule, the inhibition at 1 µM (YES1) was 1.22%, the IC50 (EPHB2) was greater than 10 µM and the inhibition at 1 µM (EPHB2) was 0.51%. The IC50 (MUSK) was greater than 10 µM, the inhibition at 1 µM (MUSK) was 1.26% and the IC50 (PTK2B) was greater than 10 µM. The inhibition at 1 µM (PTK2B) was 0.73%, the IC50 (NTRK3) was greater than 10 µM and the inhibition at 1 µM (NTRK3) was 4.75%. It also gave an IC50 (ITK) greater than 10 µM, an inhibition at 1 µM (ITK) of 0.75% and an IC50 (EPHA4) greater than 10 µM. The inhibition at 1 µM (EPHA4) was 0.58%, the IC50 (JAK2) was greater than 10 µM and the inhibition at 1 µM (JAK2) was 0.18%. The IC50 (TEC) was greater than 10 µM, the inhibition at 1 µM (TEC) was 0.67% and the “STAT3 binding affinity relative to CJ-1383” value (STAT3 [2]; Kd ratio vs CJ-1383, MST) was 211 fold. It also gave a Kd (STAT3 [2]; MST) of 0.00428 ± 0.00059 µM, a Kd (STAT5b) greater than 10 µM and an IC50 (STAT3 [3]) of 0.00807 ± 0.00051 µM. For the same molecule, the “STAT3 inhibition relative to CJ-1383” value (STAT3 [3]; IC50 ratio vs CJ-1383) was “about 115 fold” and the Kd (STAT2) was greater than 10 µM.
